Patent US10828315B2 (Madrigal Pharmaceuticals, Inc., priority 2013, dated 2020)
Like-named read-outs stand apart in the source and are kept apart here.

Tests used:
[1] = mouse, plasma, 1 h
Method: 150 ng/mL solution of SDC-TRAP-0002 in methanol was prepared using the internal standard spiking solution. This solution was used to precipitate all plasma samples in the study. 200 μL was pipetted into a 96 deepwell plate over dry ice. 10 μL of 1 mM stock in DMSO was added to a 1.5 mL microfuge tube, then 990 μL of plasma. Samples were mixed by vortex, then 50 μL of each sample was added in triplicate to a 96-well plate containing internal standard solution. This was designated the 0 hour time point sample. 250 μL of the remaining plasma sample was added to each of four 96 deepwell plates—one per time point. Samples were incubated at 37° C. with gentle shaking for 0.25, 0.5, and 1 hour. After each time point, one plate of each sample was removed from the shaker and placed on wet ice for approximately 2 minutes. 50 μL at plasma aliquots (in triplicate) were added to the deepwell plate containing internal standard solution. After the last time point was extracted, the 96 deepwell plate was vortexed, then centrifuged at 2-8° C. 150 μL of supernatant was collected and 25 μL at of water was added. Samples were mixed and analyzed by LC-MS/MS.
990 μL mouse plasma aliquots from a common stock were spiked with 10 μL of 1 mM stock of one of seven SDC-TRAP samples identified in the table below. Each sample was mixed and divided into 250 μL aliquots, each representing time points 0, 15 minutes, 30 minutes or 1 hour. At the prescribed time point, 3×50 μL samples were each mixed with 200 μL of methanol containing internal standard and held on dry ice until all time point samples were extracted. The samples collectively were vortex mixed for 1.5 minutes at 1500 rpm, then centrifuged at 4400 rpm for 10 minutes at 8° C.

[2] = female, SCID, mouse, in vivo
Method: Using the 10 mM stock solutions of the SDC-TRAP molecule and its Hsp90i binding moiety and effector moiety in DMSO, spiking solutions were prepared at 0.025, 0.05, 0.1, 0.5, 1, 5, 10, 50, 100, 250, and 500 μM in DMSO. 5 μL of each spiking solution was added to a 96-deep well plate.
Quality control standards were prepared from 5 μL of 0.1, 1, and 10 μM calibration standard spiking solution added in triplicate into 96-deep well plate and adding 50 μL of matrix (plasma or homogenized tumor).
To prepare test samples, test plasma was diluted as needed using blank plasma.
Tumor samples were pulverized in liquid nitrogen, weighed, and homogenized in PBS at 5× volume to sample weight. 50 μL of unknown plasma or homogenized tumor sample was mixed with 5 μL of DMSO. The samples were extracted by precipitating calibration standards, QC standards, and unknown samples with 200 μL of internal standard solution. The samples were mixed by vortex at room temperature for approximately 1.5 minutes, then centrifuge at 2-8° C. 150 μL of supernatant was collected and 25 μL of water added. Samples were mixed and analyzed by LC-MS/MS.
Samples of plasma, heart and tumor were excised from a euthanized mouse, homogenized in PBS at 5 times tissue weight and diluted in 5 μL DMSO/50 μL sample. Prior to analysis, 55 μL samples and calibration standards were precipitated in 200 μL methanol in 96-well plates. Samples were mixed on a vortex mixer for 1.5 minutes at 1500 rpm at room temperature, then centrifuged at 4400 rpm for 10 minutes at 8° C. 150 μL of each supernatant was transferred to a well of a new 96-well plate, and 25 μL of water was added and mixed with the sample. […] For the analysis of samples from female SCID mice, a gradient of solvent A (water/0.1% formic acid) and B (acetonitrile/0.1% formic acid) was used as in Table 2 below.
Various SDC-TRAP molecules and appropriate controls were administered to mice and after various time points the plasma and tumor concentration of these molecules was determined.

[3] = Retention of docetaxel SDC-TRAPs in plasma and tumor (Example 53); type: in vivo, Female SCID Mouse (H1975); details: dosed SDC-TRAP-0423 7 mg/10 mL/kg IV, DRD, Table 5, second optimized procedure
Method: Blood samples (˜300 μL) were collected by cardiac puncture and immediately centrifuged at 6000 rpm for 8 minutes at approximately 4° C. Resulting plasma samples (˜150 μL) were stored at −80° C. until analysis.
Following sacrifice, tumors were immediately dissected on ice, flash frozen in liquid N2, and stored at −80° C. until analysis.
To 55 μL of plasma samples, 200 μL of methanol containing 150-250 ng/mL internal standard(s) was added. Samples were vortex mixed for approximately 1.5 minutes at ambient temperature and then centrifuged at 4400 rpm for 10 mm at approximately 4° C. The resulting supernatants (175 μL) were transferred to a 96-well plate and dried under nitrogen at 40° C. Dried samples were reconstituted with 100 μL 50/50 (v/v) water/methanol, vortex mixed and 10 μL were injected into LC-MS/MS.
Tumor samples were weighed and homogenized in 5 volume of ice-cold phosphate buffered saline on ice using a hand-held homogenizer. To 55 μL of tumor homogenate samples, 200 μL of methanol containing 150-250 ng/mL internal standard(s) was added. Samples were vortex mixed for approximately 1.5 minutes at ambient temperature and then centrifuged at 4400 rpm for 10 min at approximately 4° C. The resulting supernatants (175 μL) were transferred to a 96-well plate and dried under nitrogen at 40° C. Dried samples were reconstituted with 100 μL 50/50 (v/v) water/methanol, vortex mixed and 10 μL were injected into LC-MS/MS.
Plasma and tumor samples were analyzed by LC-MS/MS using an Agilent 1100 HPLC (Agilent Technologies, Santa Clara, Calif.) interfaced to an API 4000 tandem mass spectrometer (Applied Biosystems, Foster City, Calif.). […] The flow rate was 0.5 mL/min. […] Quantitation for each analyte was done by extrapolation from a standard curve ranging from 2.50 to 50000 nM with 1/x^2 weighting.
Blood samples (˜300 μL) were collected by cardiac puncture and immediately centrifuged at 6000 rpm for 8 minutes at approximately 4° C. Resulting plasma samples (˜150 μL) were transferred to Eppendorf tubes containing approximately 5-10 mg of NaF, vortex mixed, and stored at −80° C. until analysis.
Following sacrifice tumors were immediately dissected on ice, flash frozen in liquid N2, and stored at −80° C. until analysis.
To 60 μL of plasma samples, 25 μL of 75/25 (v/v) water/acetonitrile containing 100 ng/mL internal standard(s) and 200 μL of acetonitrile were added. Samples were vortex mixed for approximately 2 minutes at ambient temperature and then centrifuged at 4400 rpm for 10 min at approximately 4° C. The resulting supernatants (300 μL) were transferred to a 96-well plate and dried under nitrogen at 40° C. Dried samples were reconstituted with 500 μL 60/40 (v/v) water/acetonitrile, vortex mixed and 10 μL were injected into LC-MS/MS.
Tumor samples were weighed and homogenized in 3 volume of ice-cold phosphate buffered saline on ice using a hand-held homogenizer. To 60 μL of tumor homogenate samples, 25 μL of 75/25 (v/v) water/acetonitrile containing 100 ng/mL internal standard(s) and 200 μL of acetonitrile were added. […] The resulting supernatants (200 μL) were transferred to a 96-well plate and dried under nitrogen at 40° C. Dried samples were reconstituted with 600 μL 60/40 (v/v) water/acetonitrile, vortex mixed and 10 μL were injected into LC-MS/MS.
Plasma and tumor samples were analyzed by LC-MS/MS using an Agilent 1100 HPLC (Agilent Technologies, Santa Clara, Calif.) interfaced to an API 4000 tandem mass spectrometer (Applied Biosystems, Foster City, Calif.). The separation of analytes were performed on a Symmetry Shield Sum C18 (2.1×100 mm; 100 Å) column (Waters, Milford, Mass.) with a run time of 5.0 mm per sample using the mobile phase consisted of 0.1% formic acid (A) and acetonitrile containing 0.1% formic acid (B). […] Quantitation for each analyte was done by extrapolation from a standard curve ranging from 1.00 to 25000 ng/mL with 1/x^2 weighting.

Row | SMILES | % Remaining (1 h) ([1]; 10 µM) | also measured
1 | CC(C)c1cc(-c2nnc(O)n2-c2ccc(CC3CCN(CC(=O)Nc4cccc5c4CN(C4CCC(=O)NC4=O)C5=O)CC3)cc2)c(O)cc1O (stereo not shown) [SDC-TRAP-0116, 2-(4-(4-(3-(2,4-dihydroxy-5-isopropylphenyl)-5-hydroxy-4H-1,2,4-triazol-4-yl)benzyl)piperidin-1-yl)-N-(2-(2,6-dioxopiperidin-3-yl)-1-oxoisoindolin-4-yl) acetamide] | 91.1% | Tumor Conc. ([2]; 1 h): 13.7 nmol/g of tissue; Tumor Conc. ([2]; 6 h): 6.09 nmol/g of tissue; Tumor Conc. ([2]; 24 h): 2.78 nmol/g of tissue; Tumor Conc. ([2]; 48 h): 1.46 nmol/g of tissue; Tumor Conc. ([2]; […]): 17.7 nmol/g of tissue
2 | CCNC(=O)c1nnc(-c2cc(C(C)C)c(O)cc2O)n1-c1ccc(N(C)C2CCN(C(=O)CCC(=O)O[C@H](C(=O)O[C@@H]3C[C@]4(O)[C@H](OC(=O)c5ccccc5)[C@H]5C6(OC(C)=O)COC6C[C@@H](O)[C@]5(C)C(=O)[C@@H](O)C(=C3C)C4(C)C)[C@H](NC(=O)OC(C)(C)C)c3ccccc3)CC2)nc1 (stereo partly shown) [SDC-TRAP-0423] | – | concentration at 6 h ([3]; female, SCID, mouse, in vivo, of analyte at 6 h, read-out: Plasma Conc.): 2210 nM; Tumor Conc. ([3]; of analyte at 6 h): 0.730 nmol/g of tissue; Plasma Conc. ([3]; of analyte at 48 h): BQL; Tumor Conc. ([3]; of analyte at 48 h): 0.0538 nmol/g of tissue; Plasma Conc. ([3]; of analyte at 72 h): BQL; Tumor Conc. ([3]; of analyte at 72 h): 0.0186 nmol/g of tissue
3 | CCNC(=O)c1nnc(-c2cc(C(C)C)c(O)cc2O)n1-c1ccc(CN2CCC(C(=O)N3CCC(n4cc(-c5cnc(N)c(O[C@H](C)c6c(Cl)ccc(F)c6Cl)c5)cn4)CC3)CC2)cc1 [SDC-TRAP-0134, (R)-4-(4-((4-(4-(4-(6-amino-5-(1-(2,6-dichloro-3-fluorophenyl)ethoxy)pyridin-3-yl)-1H-pyrazol-1-yl)piperidine-1-carbonyl)piperidin-1-yl)methyl)phenyl)-5-(2,4-dihydroxy-5-isopropylphenyl)-N-ethyl-4H-1,2,4-triazole-3-carboxamide] | 108% | –
4 | CC(C)c1cc(-c2nnc(O)n2-c2ccc(CN3CCN(c4cnc(C(=O)Nc5cccc6c5CN(C5CCC(=O)NC5=O)C6=O)cn4)CC3)c(F)c2)c(O)cc1O (stereo not shown) [SDC-TRAP-0170, 5-(4-(4-(3-(2,4-dihydroxy-5-isopropylphenyl)-5-hydroxy-4H-1,2,4-triazol-4-yl)-2-fluorobenzyl)piperazin-1-yl)-N-(2-(2,6-dioxopiperidin-3-yl)-1-oxoisoindolin-4-yl)pyrazine-2-carboxamide] | 94.1% | –
5 | CCc1c2c(nc3ccc(OS(=O)(=O)c4cccc(C(=O)N5CCN(Cc6ccc(-n7c(O)nnc7-c7cc(C(C)C)c(O)cc7O)cc6)CC5)c4)cc13)-c1cc3c(c(=O)n1C2)COC(=O)C3(O)CC (stereo not shown) [SDC-TRAP-0389, 4,11-diethyl-4-hydroxy-3,14-dioxo-3,4,12,14-tetrahydro-1H-pyrano[3′,4′:6,7]indolizino[1,2-b]quinolin-9-yl 3-(4-(4-(3-(2,4-dihydroxy-5-isopropylphenyl)-5-hydroxy-4H-1,2,4-triazol-4-yl)benzyl)piperazine-1-carbonyl)benzenesulfonate] | 77.7% | –
6 | CCNC(=O)c1nnc(-c2cc(C(C)C)c(O)cc2O)n1-c1ccc(C(=O)N(C)CC(=O)Nc2cccc3c2CN(C2CCC(=O)NC2=O)C3=O)cc1 (stereo not shown) [SDC-TRAP-0147, 5-(2,4-dihydroxy-5-isopropylphenyl)-4-(4-((2-((2-(2,6-dioxopiperidin-3-yl)-1-oxoisoindolin-4-yl)amino)-2-oxoethyl)(methyl)carbamoyl)phenyl)-N-ethyl-4H-1,2,4-triazole-3-carboxamide] | 98.1% | –
7 | COc1ccc(-c2cnoc2-c2cc(OC)c(OC)c(OC)c2)cc1OC(=O)N1CCN(c2ccc(-n3c(O)nnc3-c3cc(C(C)C)c(O)cc3O)cc2)CC1 [SDC-TRAP-0099, 2-methoxy-5-(5-(3,4,5-trimethoxyphenyl)isoxazol-4-yl)phenyl-4-(4-(3-(2,4-dihydroxy-5-isopropylphenyl)-5-hydroxy-4H-1,2,4-triazol-4-yl)phenyl) piperazine-1-carboxylate] | 95.2% | –
8 | CC(C)c1cc(-c2nnc(O)n2-c2ccc(CC(=O)N(C)CCOC(=O)Nc3cccc4c3CN(C3CCC(=O)NC3=O)C4=O)cc2)c(O)cc1O (stereo not shown) [SDC-TRAP-0127, 2-(2-(4-(3-(2,4-dihydroxy-5-isopropylphenyl)-5-hydroxy-4H-1,2,4-triazol-4-yl)phenyl)-N-methylacetamido)ethyl(2-(2,6-dioxopiperidin-3-yl)-1-oxoisoindolin-4-yl)carbamate] | 87.3% | –
9 | CC(C)c1cc(-c2nnc(O)n2-c2ccc(CN3CCN(C(=O)COC(=O)Nc4cccc5c4CN(C4CCC(=O)NC4=O)C5=O)CC3)cc2)c(O)cc1O (stereo not shown) [SDC-TRAP-0121, 2-(4-(4-(3-(2,4-dihydroxy-5-isopropylphenyl)-5-hydroxy-4H-1,2,4-triazol-4-yl)benzyl)piperazin-1-yl)-2-oxoethyl(2-(2,6-dioxopiperidin-3-yl)-1-oxoisoindolin-4-yl)carbamate] | 89.1% | –
10 | CCc1c2c(nc3ccc(OS(=O)(=O)c4ccc(C(=O)N5CCC(CCn6ccc7cc(-n8c(O)nnc8-c8cc(C(C)C)c(O)cc8O)ccc76)CC5)cc4)cc13)-c1cc3c(c(=O)n1C2)COC(=O)C3(O)CC (stereo not shown) [SDC-TRAP-0390, 4,11-diethyl-4-hydroxy-3,14-dioxo-3,4,12,14-tetrahydro-1H-pyrano[3′,4′:6,7]indolizino[1,2-b]quinolin-9-yl 4-(4-(2-(5-(3-(2,4-dihydroxy-5-isopropylphenyl)-5-hydroxy-4H-1,2,4-triazol-4-yl)-1H-indol-1-yl)ethyl)piperidine-1-carbonyl)benzenesulfonate] | 92.5% | –
11 | CC(C)c1cc(-c2nnc(O)n2-c2ccc3c(ccn3CCCC3CCN(C(=O)c4ncn5c(=O)n(C)nnc45)CC3)c2)c(O)cc1O [SDC-TRAP-0345, 8-(4-(3-(5-(3-(2,4-dihydroxy-5-isopropylphenyl)-5-hydroxy-4H-1,2,4-triazol-4-yl)-1H-indol-1-yl)propyl)piperidine-1-carbonyl)-3-methylimidazo[5,1-d][1,2,3,5]tetrazin-4(3H)-one] | 63.8% | –
12 | CCNC(=O)c1nnc(-c2cc(C(C)C)c(O)cc2O)n1-c1ccc(CN2CCC(C(=O)N3CCC(OC(=O)Nc4cccc5c4CN(C4CCC(=O)NC4=O)C5=O)CC3)CC2)cc1 (stereo not shown) [SDC-TRAP-0123, 1-(1-(4-(3-(2,4-Dihydroxy-5-isopropylphenyl)-5-(ethylcarbamoyl)-4H-1,2,4-triazol-4-yl)benzyl)piperidine-4-carbonyl)piperidin-4-yl (2-(2,6-dioxopiperidin-3-yl)-1-oxoisoindolin-4-yl)carbamate] | 95.6% | –
13 | CC(C)c1cc(-c2nnc(O)n2-c2ccc(CN3CCN(C(=O)O[C@H]4CC[C@@]5(C)C(=CC[C@@H]6[C@@H]5CC[C@]5(C)C(c7cccnc7)=CC[C@@H]65)C4)CC3)cc2)c(O)cc1O [SDC-TRAP-0150, (3S,8R,9S,10R,13S,14S)-10,13-dimethyl-17-(pyridin-3-yl)-2,3,4,7,8,9,10,11,12,13,14,15-dodecahydro-1H-cyclopenta[a]phenanthren-3-yl 4-(4-(3-(2,4-dihydroxy-5-isopropylphenyl)-5-hydroxy-4H-1,2,4-triazol-4-yl)benzyl) piperazine-1-carboxylate] | 103% | % Remaining (1 h) ([1]; 10 μM): 103%
14 | COc1cc(O)c(-c2nnc(C(=O)NC(C)C)n2-c2ccc(CN3CCC(C(=O)Nc4cccc5c4CN(C4CCC(=O)NC4=O)C5=O)CC3)cc2)cc1C(C)C (stereo not shown) [SDC-TRAP-0115, N-(2-(2,6-dioxopiperidin-3-yl)-1-oxoisoindolin-4-yl)-1-(4-(3-(2-hydroxy-5-isopropyl-4-methoxyphenyl)-5-(isopropylcarbamoyl)-4H-1,2,4-triazol-4-yl)benzyl)piperidine-4-carboxamide] | 85.9% | –
15 | CC(C)c1cc(-c2nnc(O)n2-c2ccc(CN3CCN(C(=O)c4ccc(COC(=O)Nc5cccc6c5CN(C5CCC(=O)NC5=O)C6=O)cc4)CC3)c(F)c2)c(O)cc1O (stereo not shown) [SDC-TRAP-0157, 4-(4-(4-(3-(2,4-dihydroxy-5-isopropylphenyl)-5-hydroxy-4H-1,2,4-triazol-4-yl)-2-fluorobenzyl)piperazine-1-carbonyl)benzyl (2-(2,6-dioxopiperidin-3-yl)-1-oxoisoindolin-4-yl)carbamate] | 81.4% | –
16 | CCNC(=O)c1nnc(-c2cc(C(C)C)c(O)cc2O)n1-c1ccc(Oc2ccc(C(=O)N3CCC(COC(=O)Nc4cccc5c4CN(C4CCC(=O)NC4=O)C5=O)CC3)cc2)cc1 (stereo not shown) [SDC-TRAP-0125, (1-(4-(4-(3-(2,4-Dihydroxy-5-isopropylphenyl)-5-(ethylcarbamoyl)-4H-1,2,4-triazol-4-yl)phenoxy)benzoyl)piperidin-4-yl)methyl (2-(2,6-dioxopiperidin-3-yl)-1-oxoisoindolin-4-yl)carbamate] | 99.4% | –
17 | CO[C@H]1/C=C\C=C(/C)C(=O)NC2=CC(=O)C(NCCCCCCNC(=O)c3ncn4c(=O)n(C)nnc34)=C(C[C@@H](C)C[C@H](OC)[C@@H](O)[C@@H](C)/C=C(\C)[C@@H]1OC(N)=O)C2=O [SDC-TRAP-0267, (4E,6Z,8S,9S,10E,12S,13S,14S,16R)-13-hydroxy-8,14-dimethoxy-4,10,12,16-tetramethyl-19-((6-(3-methyl-4-oxo-3,4-dihydroimidazo[5,1-d][1,2,3,5]tetrazine-8-carboxamidohexyl)amino)-3,20,22-trioxo-2-azabicyclo[16.3.1]docosa-1(21),4,6,10,18-pentaen-9-yl carbamate] | 63.2% | –
